Key:
Substance-K receptor = molecular target: T1, Substance-K receptor (Homo sapiens, UniProt P21452); experiment: Displacement of [125I]NKA from human Tachykinin receptor 2 expressed in CHO cells; type: cell-based
T1 sequence (P21452 whole entry): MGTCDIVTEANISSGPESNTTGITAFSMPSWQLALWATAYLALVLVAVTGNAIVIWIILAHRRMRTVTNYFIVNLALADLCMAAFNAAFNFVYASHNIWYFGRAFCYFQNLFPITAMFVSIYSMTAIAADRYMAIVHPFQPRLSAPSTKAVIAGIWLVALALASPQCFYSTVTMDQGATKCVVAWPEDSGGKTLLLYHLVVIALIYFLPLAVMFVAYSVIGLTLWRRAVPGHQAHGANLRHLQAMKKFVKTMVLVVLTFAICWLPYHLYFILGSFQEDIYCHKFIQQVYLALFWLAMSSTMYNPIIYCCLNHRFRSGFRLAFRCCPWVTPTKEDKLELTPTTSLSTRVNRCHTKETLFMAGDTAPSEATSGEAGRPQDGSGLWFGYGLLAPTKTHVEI

Oryctolagus cuniculus = organism: Oryctolagus cuniculus; experiment: Antagonist activity on isolated endothelium-deprived rabbit pulmonary artery preparations when evaluated against a contractile concentration response curve to NKA; type: functional

| Ki (Substance-K receptor) | SMILES | pKB (Oryctolagus cuniculus) |
| --- | --- | --- |
| > 10 µM | CCOC(=O)C1=C(C)OC2OC(CO)C(OCc3ccccc3)C(O)C2[S+]1[O-] (stereo not given) |  |
| > 10 µM | CCOC(=O)C1=C(C)OC2OC(COCc3ccccc3)C(O)C(OCc3ccccc3)C2[S+]1[O-] (stereo not given) |  |
| 0.25 µM | CCOC(=O)C1=C(C)OC2OC(COCc3ccccc3)C(OCc3ccccc3)C(OCc3ccccc3)C2[S+]1[O-] (stereo not given) | 6 |
| 0.79 µM | O=C(C1=C(c2ccccc2)OC2OC(COCc3ccccc3)C(OCc3ccccc3)C(OCc3ccccc3)C2[S+]1[O-])c1ccccc1 (stereo not given) |  |
| > 10 µM | O=C(C1=C(c2ccccc2)OC2OC(COCc3ccccc3)C(OCc3ccccc3)C(OCc3ccccc3)C2S1)c1ccccc1 (stereo not given) |  |
| 12.6 µM | CCOC(=O)C1=C(C)OC2OC(COCc3ccccc3)C(OCc3ccccc3)C(OCc3ccccc3)C2S1 (stereo not given) |  |
| 0.4 µM | CC1=C(C(=O)Oc2ccccc2)[S+]([O-])C2C(O1)OC(COCc1ccccc1)C(OCc1ccccc1)C2OCc1ccccc1 (stereo not given) |  |
| > 10 µM | CC1=C(C(=O)Oc2ccccc2)SC2C(O1)OC(COCc1ccccc1)C(OCc1ccccc1)C2OCc1ccccc1 (stereo not given) |  |
| 0.79 µM | CCOC(=O)C1=C(C)OC2OC(COCc3ccccc3)C(OCc3ccccc3)C(O)C2[S+]1[O-] (stereo not given) |  |
| 5.01 µM | O=C(C1=C(c2ccccc2)OC2OC(COCc3ccccc3)C(OCc3ccccc3)C(OCc3ccccc3)C2S1(=O)=O)c1ccccc1 (stereo not given) |  |
| 12.6 µM | CCOC(=O)C1=C(C)OC2OC(COCc3ccccc3)C(OCc3ccccc3)C(O)C2S1 (stereo not given) |  |
| 4 µM | CCOC(=O)C1=C(C)OC2OC(CO)C(OCc3ccccc3)C(OCc3ccccc3)C2S1 (stereo not given) |  |
| 4 µM | CCOC(=O)C1=C(C)OC2OC(CO)C(OCc3ccccc3)C(OCc3ccccc3)C2[S+]1[O-] (stereo not given) |  |
| > 10 µM | CCOC(=O)C1=C(C)OC2OC(CO)C(OCc3ccccc3)C(O)C2S1 (stereo not given) |  |

Source: ChEMBL document CHEMBL1134877, “Design, synthesis and biological activity of carbohydrate-containing peptidomimetics as new ligands for the human tachykinin NK-2 receptor” (Bioorg Med Chem Lett, 2002)
